Each block holds one compound with its values, some of them ahead of it.
How the values were obtained:
Type in all cases: physicochemical
[1] = Stability of Form I and Form II under various storage conditions
Excerpt: In each case, the test material was first placed in Primary Packaging Material (LLDPE bag within a HMHDPE/LDPE/LDPE blend bag, and then heat sealed). The Primary Packaging Material was placed in Secondary Packaging Material (HDPE drum). All other impurities were less than 1% at each time point.

[2] = Mean intrinsic dissolution studies
Excerpt: Mean intrinsic dissolution rates for exemplary batches of the two forms are shown in Table cC-2 for 3 batches of Form I (SD and % CV for one batch shown) and for Form II.

[3] = Interconversion slurries of Form I and Form II
Description: As shown in the interconversion of slurries experiment summarized below in the Examples in Table B, slurries of Forms I and II are prepared in 2-propanol (IPA) and […] (MEK) at ambient, sub-ambient, and elevated temperatures. In 2-propanol, conversion of Form I to Form II appears to be solubility driven at ambient and sub-ambient temperatures, with little apparent change observed in the ratio of Forms I and II by XRPD analysis over 3 days. Extending the interconversion period to 8 days at room temperature left only a trace of Form I remaining. In 2-propanol, at elevated temperature, only Form II is obtained.
Interconversion studies by slurrying of Form I and Form II are shown in the following Table B in which the starting solid was a mixture of Form I and Form II; IPA is isopropyl alcohol (isopropanol) and MEK is methyl ethyl ketone (2-butanone).

3-Ethynylaniline ([1]; 2-8° C., 3 Month): 0.01%
Assay (on hydrous basis) ([1]; 2-8° C., 3 Month): 98.9%
Chromatographic Purity ([1]; 2-8° C., 3 Month): 98.1%
Water ([1]; 2-8° C., 3 Month): 1.63%
3-Ethynylaniline ([1]; 2-8° C., 6 Month): Not Detected
Assay (on hydrous basis) ([1]; 2-8° C., 6 Month): 98.8%
Chromatographic Purity ([1]; 2-8° C., 6 Month): 98.4%
Water ([1]; 2-8° C., 6 Month): 1.61%
3-Ethynylaniline ([1]; 2-8° C., 12 Month): Not Detected
Assay (on hydrous basis) ([1]; 2-8° C., 12 Month): 98.7%
Chromatographic Purity ([1]; 2-8° C., 12 Month): 98.5%
Water ([1]; 2-8° C., 12 Month): 1.69%
3-Ethynylaniline ([1]; 2-8° C., Initial): 0.01%
Assay (on hydrous basis) ([1]; 2-8° C., Initial): 99.5%
Chromatographic Purity ([1]; 2-8° C., Initial): 98.3%
Water ([1]; 2-8° C., Initial): 1.11%
3-Ethynylaniline ([1]; 25° C./60% RH, 3 Month): 0.01%
Assay (on hydrous basis) ([1]; 25° C./60% RH, 3 Month): 98.7%
Chromatographic Purity ([1]; 25° C./60% RH, 3 Month): 98.1%
Water ([1]; 25° C./60% RH, 3 Month): 1.65%
3-Ethynylaniline ([1]; 25° C./60% RH, 6 Month): Not Detected
Assay (on hydrous basis) ([1]; 25° C./60% RH, 6 Month): 98.6%
Chromatographic Purity ([1]; 25° C./60% RH, 6 Month): 98.3%
Water ([1]; 25° C./60% RH, 6 Month): 1.71%
3-Ethynylaniline ([1]; 25° C./60% RH, 12 Month): Not Detected
Assay (on hydrous basis) ([1]; 25° C./60% RH, 12 Month): 98.5%
Chromatographic Purity ([1]; 25° C./60% RH, 12 Month): 98.4%
Water ([1]; 25° C./60% RH, 12 Month): 1.75%
3-Ethynylaniline ([1]; 25° C./60% RH, Initial): 0.01%
Assay (on hydrous basis) ([1]; 25° C./60% RH, Initial): 99.5%
Chromatographic Purity ([1]; 25° C./60% RH, Initial): 98.3%
Water ([1]; 25° C./60% RH, Initial): 1.11%
3-Ethynylaniline ([1]; 40° C./75% RH, 3 Month): 0.01%
Assay (on hydrous basis) ([1]; 40° C./75% RH, 3 Month): 98.5%
Chromatographic Purity ([1]; 40° C./75% RH, 3 Month): 98.0%
Water ([1]; 40° C./75% RH, 3 Month): 1.68%
3-Ethynylaniline ([1]; 40° C./75% RH, 12 Month): 0.01%
Assay (on hydrous basis) ([1]; 40° C./75% RH, 12 Month): 98.3%
Chromatographic Purity ([1]; 40° C./75% RH, 12 Month): 98.3%
Water ([1]; 40° C./75% RH, 12 Month): 1.84%
3-Ethynylaniline ([1]; 40° C./75% RH, Initial): 0.01%
Assay (on hydrous basis) ([1]; 40° C./75% RH, Initial): 99.5%
Chromatographic Purity ([1]; 40° C./75% RH, Initial): 98.3%
Water ([1]; 40° C./75% RH, Initial): 1.11%
Compound: CC[C@H]1OC(=O)[C@@](C)(F)C(=O)[C@H](C)[C@@H](O[C@@H]2O[C@H](C)C[C@H](N(C)C)[C@H]2O)[C@](C)(OC)C[C@@H](C)C(=O)[C@H](C)[C@H]2N(CCCCn3cc(-c4cccc(N)c4)nn3)C(=O)O[C@]12C [Form I (Lot 3)]

Mean intrinsic dissolution rate ([2]; 0.1N Hydrochloric Acid): 10.6 mg/min/cm^2
Mean intrinsic dissolution rate ([2]; Acetate buffer, pH 4.5): 2.8 mg/min/cm^2
Mean intrinsic dissolution rate ([2]; Phosphate buffer, pH 6.8): 0.03 mg/min/cm^2
Mean intrinsic dissolution rate ([2]; Phosphate buffer, pH 7.6): 0.001 mg/min/cm^2
Mean intrinsic dissolution rate ([2]; Water): 0.7 mg/min/cm^2
Compound: CC[C@H]1OC(=O)[C@@](C)(F)C(=O)[C@H](C)[C@@H](O[C@@H]2O[C@H](C)C[C@H](N(C)C)[C@H]2O)[C@](C)(OC)C[C@@H](C)C(=O)[C@H](C)[C@H]2N(CCCCn3cc(-c4cccc(N)c4)nn3)C(=O)O[C@]12C [Form I Batch B]

Mean intrinsic dissolution rate ([2]; 0.1N Hydrochloric Acid): 9.4 mg/min/cm^2
Mean intrinsic dissolution rate ([2]; Acetate buffer, pH 4.5): 2.1 mg/min/cm^2
Mean intrinsic dissolution rate ([2]; Phosphate buffer, pH 6.8): 0.004 mg/min/cm^2
Mean intrinsic dissolution rate ([2]; Phosphate buffer, pH 7.6): 0.02 mg/min/cm^2
Mean intrinsic dissolution rate ([2]; Water): 2.0 mg/min/cm^2
Compound: CC[C@H]1OC(=O)[C@@](C)(F)C(=O)[C@H](C)[C@@H](O[C@@H]2O[C@H](C)C[C@H](N(C)C)[C@H]2O)[C@](C)(OC)C[C@@H](C)C(=O)[C@H](C)[C@H]2N(CCCCn3cc(-c4cccc(N)c4)nn3)C(=O)O[C@]12C [Form I Batch A]

3-Ethynylaniline ([1]; 2-8° C., 3 Month): 0.01%
Assay (on hydrous basis) ([1]; 2-8° C., 3 Month): 98.4%
Chromatographic Purity ([1]; 2-8° C., 3 Month): 98.1%
Water ([1]; 2-8° C., 3 Month): 1.56%
3-Ethynylaniline ([1]; 2-8° C., 6 Month): 0.01%
Assay (on hydrous basis) ([1]; 2-8° C., 6 Month): 98.3%
Chromatographic Purity ([1]; 2-8° C., 6 Month): 98.3%
Water ([1]; 2-8° C., 6 Month): 1.47%
3-Ethynylaniline ([1]; 2-8° C., 12 Month): Not Detected
Assay (on hydrous basis) ([1]; 2-8° C., 12 Month): 98.2%
Chromatographic Purity ([1]; 2-8° C., 12 Month): 98.4%
Water ([1]; 2-8° C., 12 Month): 1.51%
3-Ethynylaniline ([1]; 2-8° C., Initial): 0.01%
Assay (on hydrous basis) ([1]; 2-8° C., Initial): 99.0%
Chromatographic Purity ([1]; 2-8° C., Initial): 98.2%
Water ([1]; 2-8° C., Initial): 0.92%
3-Ethynylaniline ([1]; 25° C./60% RH, 3 Month): 0.01%
Assay (on hydrous basis) ([1]; 25° C./60% RH, 3 Month): 98.3%
Chromatographic Purity ([1]; 25° C./60% RH, 3 Month): 98.1%
Water ([1]; 25° C./60% RH, 3 Month): 1.59%
3-Ethynylaniline ([1]; 25° C./60% RH, 6 Month): Not Detected
Assay (on hydrous basis) ([1]; 25° C./60% RH, 6 Month): 98.2%
Chromatographic Purity ([1]; 25° C./60% RH, 6 Month): 98.4%
Water ([1]; 25° C./60% RH, 6 Month): 1.75%
3-Ethynylaniline ([1]; 25° C./60% RH, 12 Month): Not Detected
Assay (on hydrous basis) ([1]; 25° C./60% RH, 12 Month): 98.1%
Chromatographic Purity ([1]; 25° C./60% RH, 12 Month): 98.4%
Water ([1]; 25° C./60% RH, 12 Month): 1.78%
3-Ethynylaniline ([1]; 25° C./60% RH, Initial): 0.01%
Assay (on hydrous basis) ([1]; 25° C./60% RH, Initial): 99.0%
Chromatographic Purity ([1]; 25° C./60% RH, Initial): 98.2%
Water ([1]; 25° C./60% RH, Initial): 0.92%
3-Ethynylaniline ([1]; 40° C./75% RH, 3 Month): 0.01%
Assay (on hydrous basis) ([1]; 40° C./75% RH, 3 Month): 98.2%
Chromatographic Purity ([1]; 40° C./75% RH, 3 Month): 98.4%
Water ([1]; 40° C./75% RH, 3 Month): 1.65%
3-Ethynylaniline ([1]; 40° C./75% RH, 12 Month): 0.01%
Assay (on hydrous basis) ([1]; 40° C./75% RH, 12 Month): 98.1%
Chromatographic Purity ([1]; 40° C./75% RH, 12 Month): 98.3%
Water ([1]; 40° C./75% RH, 12 Month): 1.82%
3-Ethynylaniline ([1]; 40° C./75% RH, Initial): 0.01%
Assay (on hydrous basis) ([1]; 40° C./75% RH, Initial): 99.0%
Chromatographic Purity ([1]; 40° C./75% RH, Initial): 98.2%
Water ([1]; 40° C./75% RH, Initial): 0.92%
Compound: CC[C@H]1OC(=O)[C@@](C)(F)C(=O)[C@H](C)[C@@H](O[C@@H]2O[C@H](C)C[C@H](N(C)C)[C@H]2O)[C@](C)(OC)C[C@@H](C)C(=O)[C@H](C)[C@H]2N(CCCCn3cc(-c4cccc(N)c4)nn3)C(=O)O[C@]12C [Form I (Lot 4)]

Mean intrinsic dissolution rate ([2]; 0.1N Hydrochloric Acid): 7.9 mg/min/cm^2
Mean intrinsic dissolution rate ([2]; Acetate buffer, pH 4.5): 2.7 mg/min/cm^2
Mean intrinsic dissolution rate ([2]; Phosphate buffer, pH 6.8): 0.02 mg/min/cm^2
Mean intrinsic dissolution rate ([2]; Water): 1.6 mg/min/cm^2
Compound: CC[C@H]1OC(=O)[C@@](C)(F)C(=O)[C@H](C)[C@@H](O[C@@H]2O[C@H](C)C[C@H](N(C)C)[C@H]2O)[C@@](C)(OC)C[C@@H](C)C(=O)[C@H](C)[C@H]2N(CCCCn3cc(-c4cccc(N)c4)nn3)C(=O)O[C@]12C [Form I Batch C]

XRPD Result ([3]; slurry in IPA, 2-8° C. 3 days): Form I + II
XRPD Result ([3]; slurry in IPA, 2-8° C. 5 days (8 days total), continuation of previous slurry): Form I + II
XRPD Result ([3]; slurry in IPA, 60° C. 3 days): Form II
XRPD Result ([3]; slurry in IPA, RT 3 days): Form I + II
XRPD Result ([3]; slurry in MEK, 2-8° C. 3 days): Form II
XRPD Result ([3]; slurry in MEK, 60° C. 3 days (6 days total), continuation with additional solids): Form II
XRPD Result ([3]; slurry in MEK, RT 3 days): Form II
Compound: CC[C@H]1OC(=O)[C@@](C)(F)C(=O)[C@H](C)[C@@H](O[C@@H]2O[C@H](C)C[C@H](N(C)C)[C@H]2O)[C@](C)(OC)C[C@@H](C)C(=O)[C@H](C)[C@H]2N(CCCCn3cc(-c4cccc(N)c4)nn3)C(=O)O[C@]12C [CEM-101 Form A and B Solids]
